Assay results: US20260287577A1, “APPLICATIONS OF HEPATOCYTE CO-CULTURE SYSTEM” (LifeNet Health, priority 2023, published 2026)
Where two headings read alike, the source gives them in different places.

What was measured:
Format in all cases: cell-based, human
[1] = test system: genes known to have a role in fibrogenic responses (e.g., LGALS3, LOX, MMP1); assay: Fibrogenic response gene expression overall, Example 9; conditions: DEX / no DEX, with / without KCs
Method: (§1) Methods: The hepatic tri-culture system, including adult primary human hepatocytes (PHHs), endothelial cells and stromal cells, was cultured with and without primary KCs, at a ratio of 1 KC:4 PHH or 1 KC:2 PHH, in a glucocorticoid-containing or -free media. […] MTX or TGF-β1 or […] (LPS) cause hepatic injury. The injury leads to lipid accumulation, lipotoxicity and cytokines are produced. These activate the KCs and the liver sinusoidal endothelial cells (LSEC). Then stromal activation and gene expressions occur, leading to liver fibrosis.
(§2) Following exposure to methotrexate (MTX; 0.1 and 1 μM; Sigma-Aldrich, St. Louis, MO) or TGF-β1 (0.1 and 10 ng/ml; Miltenyi Biotec, Gaithersburg, MD) or vehicle (DMSO; 0.1% v/v), the expression of various genes known to have a role in fibrogenic responses (e.g., LGALS3, LOX, MMP1) was determined. MTX and TGF-β1 are known fibrogenic compounds Cell health was assessed by urea production and LDH release in the medium.
(§3) The experiments were done in a 96-well format according to the details shown below. […] The hepatocytes were from an individual adult lot. The Kupffer cells (KCs) were from an individual adult lot. The seeding density of the Kupffer cells to the hepatocytes was selected to mimic healthy or inflammatory physiological levels (1:4 or 1:2 ratio). The seeding of the KCs occurred on Day 1 of the culture (meaning 24 hours post-hepatocyte plating).
(§4) All hepatocyte plating was performed using TCPM with Dex (1 μM), as above. Four hours after hepatocyte plating, TCCM was added with and without Dex (half of the cultures with Dex, half without.) The media used were those as described above. The medium exchange process was to do 50% media changes following KC plating up until the compound addition.
Thawing and plating of the hepatocytes was done according to methods as known in the art. The next day (24 hours) after plating the cells, the KCs were added in TCCM with or without Dex (0.1 μM) at a 1:4 or 1:2 ratio to hepatocytes. […]
The cell harvest and analytical endpoints were done as follows. […] The treatment samples were analyzed in triplicate. […]

[2] = test system: MMP1 (matrix Metalloproteinase 1); assay: cells; conditions: Homo sapiens
Method: as §1, §2, §3, §4
(§5) Thawing and plating of the hepatocytes was done according to methods as known in the art. The next day (24 hours) after plating the cells, the KCs were added in TCCM with or without Dex (0.1 μM) at a 1:4 or 1:2 ratio to hepatocytes. The next day and subsequent days, 50% volume of medium was changed each day. Starting at day 5 of culture, the compounds tested were added in the 50% medium volume and allowed to go, unchanged, through Day 8 of culture (72 hr treatment); or to 120 hr treatment times. The treatment compounds were methotrexate (0.1 and 1.0 μM) and TGF-β1 (0.1 and 10 ng/ml).
(§6) The cell harvest and analytical endpoints were done as follows. Phase contrast images were captured each day. The media samples were collected for lactate dehydrogenase (LDH) assay at the end of each treatment period (i.e., 72 or 120 hours of treatment with each compound). The results were used to assess cell health. Cell lysates were harvested for gene expression analysis. 2 wells were combined per sample. The treatment samples were analyzed in triplicate. The following genes that have a role in fibrogenic response were observed. LGALS3 (Galectin3); LOX (lysyl oxidase), MMP1 (matrix Metalloproteinase 1); Housekeeping gene (β-actin). The images in FIGS. 44 and 45 are at 200×.

LOX (lysyl oxidase) = assay: cells; conditions: Homo sapiens
Method: as §1, §2, §3, §4, §5, §6

LGALS3 (Galectin3) = assay: cells; conditions: for fold induction at 0.1 µM / fold induction at 1 µM: Homo sapiens
Method: as §1, §2, §3, §4, §5, §6

CN(Cc1cnc2nc(N)nc(N)c2n1)c1ccc(C(=O)N[C@@H](CCC(=O)O)C(=O)O)cc1 [MTX, methotrexate]
culture conditions in which effects on fibrogenic genes were observed [1]: observed on the no DEX treated groups with KCs
fold induction at 0.1 µM ([2]; 72 h, read-out: MMP1 fold induction Mean, 72 hours, with Dex, No KC, MTX 0.1 μM): 1.2
fold induction at 1 µM ([2]; 72 h, read-out: MMP1 fold induction Mean, 72 hours, with Dex, No KC, MTX 1 μM): 1.2
fold induction at 0.1 µM ([2]; 72 h, read-out: MMP1 fold induction Mean, 72 hours, with Dex, with KCs, MTX 0.1 μM): 1.1
fold induction at 1 µM ([2]; 72 h, read-out: MMP1 fold induction Mean, 72 hours, with Dex, with KCs, MTX 1 μM): 0.9
fold induction at 0.1 µM ([2]; 72 h, read-out: MMP1 fold induction Mean, 72 hours, without Dex, No KC, MTX 0.1 μM): 0.9
fold induction at 1 µM ([2]; 72 h, read-out: MMP1 fold induction Mean, 72 hours, without Dex, No KC, MTX 1 μM): 0.7
fold induction at 0.1 µM ([2]; 72 h, read-out: MMP1 fold induction Mean, 72 hours, without Dex, with KCs, MTX 0.1 μM): 1.2
fold induction at 1 µM ([2]; 72 h, read-out: MMP1 fold induction Mean, 72 hours, without Dex, with KCs, MTX 1 μM): 1.4
fold induction at 1 µM ([2]; 72 h, read-out: MMP1 gene expression, 1 μM MTX, presence of KCs, 72 hr only): 1.4
fold induction at 1 µM ([2]; 120 h, read-out: MMP1 fold induction Mean, 120 hours, with Dex, No KC, MTX 1 μM): 0.7
fold induction at 0.1 µM ([2]; 120 h, read-out: MMP1 fold induction Mean, 120 hours, with Dex, with KCs, MTX 0.1 μM): 1
fold induction at 1 µM ([2]; 120 h, read-out: MMP1 fold induction Mean, 120 hours, with Dex, with KCs, MTX 1 μM): 0.6
fold induction at 0.1 µM ([2]; 120 h, read-out: MMP1 fold induction Mean, 120 hours, without Dex, No KC, MTX 0.1 μM): 0.7
fold induction at 1 µM ([2]; 120 h, read-out: MMP1 fold induction Mean, 120 hours, without Dex, No KC, MTX 1 μM): 0.7
fold induction at 0.1 µM ([2]; 120 h, read-out: MMP1 fold induction Mean, 120 hours, without Dex, with KCs, MTX 0.1 μM): 0.7
fold induction at 1 µM ([2]; 120 h, read-out: MMP1 fold induction Mean, 120 hours, without Dex, with KCs, MTX 1 μM): 0.9
fold induction at 0.1 µM (LOX (lysyl oxidase); 72 h, read-out: LOX fold induction Mean, 72 hours, with Dex, No KC, MTX 0.1 μM): 1.2
fold induction at 1 µM (LOX (lysyl oxidase); 72 h, read-out: LOX fold induction Mean, 72 hours, with Dex, No KC, MTX 1 μM): 1.1
fold induction at 0.1 µM (LOX (lysyl oxidase); 72 h, read-out: LOX fold induction Mean, 72 hours, with Dex, with KCs, MTX 0.1 μM): 1
fold induction at 1 µM (LOX (lysyl oxidase); 72 h, read-out: LOX fold induction Mean, 72 hours, with Dex, with KCs, MTX 1 μM): 1
fold induction at 0.1 µM (LOX (lysyl oxidase); 72 h, read-out: LOX fold induction Mean, 72 hours, without Dex, No KC, MTX 0.1 μM): 1.1
fold induction at 1 µM (LOX (lysyl oxidase); 72 h, read-out: LOX fold induction Mean, 72 hours, without Dex, No KC, MTX 1 μM): 1.1
fold induction at 0.1 µM (LOX (lysyl oxidase); 72 h, read-out: LOX fold induction Mean, 72 hours, without Dex, with KCs, MTX 0.1 μM): 1.3
fold induction at 1 µM (LOX (lysyl oxidase); 72 h, read-out: LOX fold induction Mean, 72 hours, without Dex, with KCs, MTX 1 μM): 1.5
fold induction at 1 µM (LOX (lysyl oxidase); 120 h, read-out: LOX fold induction Mean, 120 hours, with Dex, No KC, MTX 1 μM): 0.8
fold induction at 0.1 µM (LOX (lysyl oxidase); 120 h, read-out: LOX fold induction Mean, 120 hours, with Dex, with KCs, MTX 0.1 μM): 1
fold induction at 1 µM (LOX (lysyl oxidase); 120 h, read-out: LOX fold induction Mean, 120 hours, with Dex, with KCs, MTX 1 μM): 1.1
fold induction at 0.1 µM (LOX (lysyl oxidase); 120 h, read-out: LOX fold induction Mean, 120 hours, without Dex, No KC, MTX 0.1 μM): 1
fold induction at 1 µM (LOX (lysyl oxidase); 120 h, read-out: LOX fold induction Mean, 120 hours, without Dex, No KC, MTX 1 μM): 1.2
fold induction at 0.1 µM (LOX (lysyl oxidase); 120 h, read-out: LOX fold induction Mean, 120 hours, without Dex, with KCs, MTX 0.1 μM): 1.4
fold induction at 1 µM (LOX (lysyl oxidase); 120 h, read-out: LOX fold induction Mean, 120 hours, without Dex, with KCs, MTX 1 μM): 1.5
fold induction at 1 µM (LOX (lysyl oxidase); read-out: LOX gene expression, 1 μM MTX, presence of KCs, 72 hr and 120 hr): ≥ 1.5
fold induction at 0.1 µM (LGALS3 (Galectin3); 72 h, read-out: LGALS3 fold induction Mean, 72 hours, with Dex, No KC, MTX 0.1 μM): 1
fold induction at 1 µM (LGALS3 (Galectin3); 72 h, read-out: LGALS3 fold induction Mean, 72 hours, with Dex, No KC, MTX 1 μM): 1.2
fold induction at 0.1 µM (LGALS3 (Galectin3); 72 h, read-out: LGALS3 fold induction Mean, 72 hours, with Dex, with KCs, MTX 0.1 μM): 1
fold induction at 1 µM (LGALS3 (Galectin3); 72 h, read-out: LGALS3 fold induction Mean, 72 hours, with Dex, with KCs, MTX 1 μM): 1.1
fold induction at 0.1 µM (LGALS3 (Galectin3); 72 h, read-out: LGALS3 fold induction Mean, 72 hours, without Dex, No KC, MTX 0.1 μM): 1.2
fold induction at 1 µM (LGALS3 (Galectin3); 72 h, read-out: LGALS3 fold induction Mean, 72 hours, without Dex, No KC, MTX 1 μM): 1.2
fold induction at 0.1 µM (LGALS3 (Galectin3); 72 h, read-out: LGALS3 fold induction Mean, 72 hours, without Dex, with KCs, MTX 0.1 μM): 1.5
fold induction at 1 µM (LGALS3 (Galectin3); 72 h, read-out: LGALS3 fold induction Mean, 72 hours, without Dex, with KCs, MTX 1 μM): 1.7
fold induction at 0.1 µM (LGALS3 (Galectin3); 120 h, read-out: LGALS3 fold induction Mean, 120 hours, with Dex, No KC, MTX 0.1 μM): 1.2
fold induction at 1 µM (LGALS3 (Galectin3); 120 h, read-out: LGALS3 fold induction Mean, 120 hours, with Dex, No KC, MTX 1 μM): 1.1
fold induction at 0.1 µM (LGALS3 (Galectin3); 120 h, read-out: LGALS3 fold induction Mean, 120 hours, with Dex, with KCs, MTX 0.1 μM): 0.9
fold induction at 1 µM (LGALS3 (Galectin3); 120 h, read-out: LGALS3 fold induction Mean, 120 hours, with Dex, with KCs, MTX 1 μM): 1.1
fold induction at 0.1 µM (LGALS3 (Galectin3); 120 h, read-out: LGALS3 fold induction Mean, 120 hours, without Dex, No KC, MTX 0.1 μM): 1.1
fold induction at 1 µM (LGALS3 (Galectin3); 120 h, read-out: LGALS3 fold induction Mean, 120 hours, without Dex, No KC, MTX 1 μM): 0.2
fold induction at 0.1 µM (LGALS3 (Galectin3); 120 h, read-out: LGALS3 fold induction Mean, 120 hours, without Dex, with KCs, MTX 0.1 μM): 1.4
fold induction at 1 µM (LGALS3 (Galectin3); 120 h, read-out: LGALS3 fold induction Mean, 120 hours, without Dex, with KCs, MTX 1 μM): 1.4
LGALS3 gene expression (LGALS3 (Galectin3); MTX at both concentrations, presence of KCs, 120 hr versus 72 hr): slight decline
